What was measured:
barnyardgrass [1] = assay: Test A pre-/postemergence herbicide test; format: in vivo, Echinochloa crus-galli; details: for Barnyardgrass plant response rating: Preemergence, visual rating on 0 to 100 scale (0 no effect, 100 complete control)
Summary of the method: (§1)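 Visual 0–100 ratings (100 = complete control) made about 10 days after treatment, greenhouse-held plants compared with untreated controls. Treatments: postemergence sprays on one- to two-leaf plants (2–10 cm tall) and preemergence directed soil sprays after planting in loam–sand, chemicals formulated in non-phytotoxic solvent containing surfactant.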

crabgrass, large = assay: Test A pre-/postemergence herbicide test; format: in vivo, Digitaria sanguinalis; details: for Crabgrass, Large plant response rating: Preemergence, visual rating on 0 to 100 scale (0 no effect, 100 complete control)
Summary of the method: as §1

giant foxtail = assay: Test A pre-/postemergence herbicide test; format: in vivo, Setaria faberii; details: for Foxtail, Giant plant response rating: Preemergence, visual rating on 0 to 100 scale (0 no effect, 100 complete control)
Summary of the method: as §1

morningglory = assay: Test A pre-/postemergence herbicide test; format: in vivo, Ipomoea spp.; details: for Morningglory plant response rating: Preemergence, visual rating on 0 to 100 scale (0 no effect, 100 complete control)
Summary of the method: as §1

pigweed = assay: Test A pre-/postemergence herbicide test; format: in vivo, Amaranthus retroflexus; details: for Pigweed plant response rating: Preemergence, visual rating on 0 to 100 scale (0 no effect, 100 complete control)
Summary of the method: as §1

velvetleaf = assay: Test A pre-/postemergence herbicide test; format: in vivo, Abutilon theophrasti; details: for Velvetleaf plant response rating: Preemergence, visual rating on 0 to 100 scale (0 no effect, 100 complete control)
Summary of the method: as §1

wheat = assay: Test A pre-/postemergence herbicide test; format: in vivo, Triticum aestivum; details: for Wheat plant response rating: Preemergence, visual rating on 0 to 100 scale (0 no effect, 100 complete control)
Summary of the method: as §1

corn = assay: Test A pre-/postemergence herbicide test; format: in vivo, Zea mays; details: for Corn plant response rating: Preemergence, visual rating on 0 to 100 scale (0 no effect, 100 complete control)
Summary of the method: as §1

rice = assay: Test B flooded paddy test; format: in vivo, Oryza sativa; details: 250 g ai/ha, Flood; scale of 0 to 100 where 0 is no effect and 100 is complete control
Method: (§2) Plant species in the flooded paddy test selected from rice (Oryza sativa), sedge, umbrella (small-flower umbrella sedge, Cyperus difformis), ducksalad (Heteranthera limosa), and barnyardgrass (Echinochloa crus-galli) were grown to the 2-leaf stage for testing. At time of treatment, test pots were flooded to 3 cm above the soil surface, treated by application of test compounds directly to the paddy water, and then maintained at that water depth for the duration of the test. Treated plants and controls were maintained in a greenhouse for 13 to 15 days, after which time all species were compared to controls and visually evaluated. Plant response ratings, summarized in Table B, are based on a scale of 0 to 100 where 0 is no effect and 100 is complete control. A dash (-) response means no test result.

sedge, umbrella = assay: Test B flooded paddy test; format: in vivo, Cyperus difformis; details: 250 g ai/ha, Flood; scale of 0 to 100 where 0 is no effect and 100 is complete control
Method: as §2

ducksalad = assay: Test B flooded paddy test; format: in vivo, Heteranthera limosa; details: 250 g ai/ha, Flood; scale of 0 to 100 where 0 is no effect and 100 is complete control
Method: as §2

barnyardgrass [2] = assay: Test B flooded paddy test; format: in vivo, Echinochloa crus-galli; details: 250 g ai/ha, Flood; scale of 0 to 100 where 0 is no effect and 100 is complete control
Method: as §2

[3] = Postemergence, 500 g ai/ha, 0 to 100 scale (0 no effect, 100 complete control)
[4] = preemergence, 500 g ai/ha, 0 to 100 scale (0 no effect, 100 complete control)
[5] = Postemergence, 125 g ai/ha, 0 to 100 scale, 0 no effect, 100 complete control
[6] = preemergence, 500 g ai/ha, 0 to 100 scale

## O=C1NCC(c2ccccc2)C1C(=O)Nc1ccccc1Cl (racemic) [Compound 83]
Barnyardgrass [1]; [3]
  Plant response rating, Barnyardgrass: 60
Barnyardgrass [1]; 125 g ai/ha
  Barnyardgrass plant response rating: 0
Barnyardgrass [1]; [4]
  Plant response rating, Barnyardgrass: 50
crabgrass, large; [5]
  Plant response rating, Crabgrass, Large: 20
crabgrass, large; [3]
  Plant response rating, Crabgrass, Large: 70
crabgrass, large; 125 g ai/ha
  Crabgrass, Large plant response rating: 70
crabgrass, large; [6]
  Plant response rating, Crabgrass, Large: 90
Giant foxtail; [5]
  Plant response rating, Foxtail, Giant: 0
Giant foxtail; [3]
  Plant response rating, Foxtail, Giant: 50
Giant foxtail; 125 g ai/ha
  Foxtail, Giant plant response rating: 0
Giant foxtail; [6]
  Plant response rating, Foxtail, Giant: 70
morningglory; [5]
  Plant response rating, Morningglory: 0
morningglory; [3]
  Plant response rating, Morningglory: 0
morningglory; 125 g ai/ha
  Morningglory plant response rating: 0
morningglory; [6]
  Plant response rating, Morningglory: 0
pigweed; [5]
  Plant response rating, Pigweed: 0
pigweed; [3]
  Plant response rating, Pigweed: 0
pigweed; 125 g ai/ha
  Pigweed plant response rating: 0
pigweed; [6]
  Plant response rating, Pigweed: 0
velvetleaf; [5]
  Plant response rating, Velvetleaf: 0
velvetleaf; [3]
  Plant response rating, Velvetleaf: 0
velvetleaf; 125 g ai/ha
  Velvetleaf plant response rating: 0
velvetleaf; [6]
  Plant response rating, Velvetleaf: 0
wheat; [5]
  Plant response rating, Wheat: 0
wheat; [3]
  Plant response rating, Wheat: 0
wheat; 125 g ai/ha
  Wheat plant response rating: 0
wheat; [6]
  Plant response rating, Wheat: 0
corn; [5]
  Plant response rating, Corn: 0
corn; [3]
  Plant response rating, Corn: 0
corn; 125 g ai/ha
  Corn plant response rating: 0
corn; [6]
  Plant response rating, Corn: 0
rice
  Plant response rating, Rice: 0
sedge, umbrella
  Plant response rating, Sedge, Umbrella: 0
ducksalad
  Plant response rating, Ducksalad: 50
Barnyardgrass [2]
  Plant response rating, Barnyardgrass: 30

## O=C1NCC(c2cc(F)c(F)c(F)c2)C1C(=O)Nc1cccc([N+](=O)[O-])c1 (centres unmarked) [Compound 49]
Barnyardgrass [1]; [5]
  Plant response rating, Barnyardgrass: 0
Barnyardgrass [1]; [3]
  Plant response rating, Barnyardgrass: 20
Barnyardgrass [1]; 125 g ai/ha
  Barnyardgrass plant response rating: 0
Barnyardgrass [1]; [4]
  Plant response rating, Barnyardgrass: 20
crabgrass, large; [5]
  Plant response rating, Crabgrass, Large: 20
crabgrass, large; [3]
  Plant response rating, Crabgrass, Large: 70
crabgrass, large; 125 g ai/ha
  Crabgrass, Large plant response rating: 70
crabgrass, large; [6]
  Plant response rating, Crabgrass, Large: 90
Giant foxtail; [5]
  Plant response rating, Foxtail, Giant: 0
Giant foxtail; [3]
  Plant response rating, Foxtail, Giant: 40
Giant foxtail; 125 g ai/ha
  Foxtail, Giant plant response rating: 20
Giant foxtail; [6]
  Plant response rating, Foxtail, Giant: 70
morningglory; [5]
  Plant response rating, Morningglory: 0
morningglory; [3]
  Plant response rating, Morningglory: 0
morningglory; 125 g ai/ha
  Morningglory plant response rating: 0
morningglory; [6]
  Plant response rating, Morningglory: 0
pigweed; [5]
  Plant response rating, Pigweed: 0
pigweed; [3]
  Plant response rating, Pigweed: 0
pigweed; 125 g ai/ha
  Pigweed plant response rating: 0
pigweed; [6]
  Plant response rating, Pigweed: 0
velvetleaf; [5]
  Plant response rating, Velvetleaf: 0
velvetleaf; [3]
  Plant response rating, Velvetleaf: 0
velvetleaf; 125 g ai/ha
  Velvetleaf plant response rating: 0
velvetleaf; [6]
  Plant response rating, Velvetleaf: 0
wheat; [5]
  Plant response rating, Wheat: 0
wheat; [3]
  Plant response rating, Wheat: 0
wheat; 125 g ai/ha
  Wheat plant response rating: 0
wheat; [6]
  Plant response rating, Wheat: 0
corn; [5]
  Plant response rating, Corn: 0
corn; [3]
  Plant response rating, Corn: 0
corn; 125 g ai/ha
  Corn plant response rating: 0
corn; [6]
  Plant response rating, Corn: 0
rice
  Plant response rating, Rice: 0
sedge, umbrella
  Plant response rating, Sedge, Umbrella: 40
ducksalad
  Plant response rating, Ducksalad: 70
Barnyardgrass [2]
  Plant response rating, Barnyardgrass: 0

From patent publication US10294202B2, “Pyrrolidinones as herbicides” (FMC Corporation, priority 2013, dated 2019)
